Source: publication PMC4368200, “Triclabendazole Sulfoxide Causes Stage-Dependent Embryolethality in Zebrafish and Mouse In Vitro” (PLoS ONE, 2015)
“Also recorded” adds a separate entry of the source. Like-named read-outs stand apart in the source and are kept apart here. Marks after values point to notes of the source that are not given here.

Assays:
[1] = test system: zebrafish embryos; experiment: Zebrafish embryo test (ZFET); type: in vivo, Danio rerio; conditions: for Dysmorphogenic embryos / Morphological score: 50 hpf
Experimental: The day before the test, adult male and female zebrafish were transferred (1:1) to breeding tanks (Aquaneering, San Diego, California). Artificial plants and marbles were used as spawning substrate. Spawning and fertilization took place within 30 min after the onset of light in the morning. Eggs were collected and extensively cleaned with ISO-standard 7346 water diluted 1:5 using deionized water. Fertilized eggs were selected under a dissection stereomicroscope (Motic SMZ168, Motic China group, LTD., China). The eggs presenting overt anomalies like asymmetries, formation of vesicles or damaged membranes were discarded.
Exposure and evaluation of eggs was performed as described before with slight variations. At 2 hours post-fertilization (hpf) fertilized eggs were selected and transferred to 6-well plates (Greiner Bio-one, Germany). Ten embryos were randomly distributed into wells and filled with 5 mL of freshly prepared test solutions. TCBZ, TCBZSO, ABZ and ABZSO were dissolved in DMSO and subsequently diluted in 0.3x Danieau’s buffer to a final DMSO concentration of 0.05% (v/v). Embryos were incubated at 26 ± 1°C with a dark-light cycle of 10–14 h for 48 h. Embryolethality was determined at 8 hpf on the basis of egg coagulation, at 26 hpf by the absence of tail detachment or somites formation, and at 50 hpf by the absence of heartbeat. Developmental and teratogenic effects were assessed at 50 hpf by the total morphological score described in [32].
The working concentrations for ZFET experiments were 0.1 μM, 0.5 μM, 1 μM, 2.5 μM and 5 μM for TCBZ studies and 0.5 μM, 1 μM, 2.5 μM, 5 μM, 10 μM and 50 μM for TCBZSO. The experiments with ABZ were performed including concentrations of 0.025 μM, 0.05 μM, 0.1 μM, 0.3 μM and 0.5 μM and for ABZSO they included 1 μM, 6 μM, 12 μM, 25 μM and 50 μM.

[2] = test system: mouse embryos at the one-cell stage; experiment: Preimplantation whole embryo culture (preWEC); design: species or system B6CBAF1 mice; conditions: for preWEC LOAEC (lethality): GD 0 to GD 4
Experimental: Female mice (6–12 weeks old) were superovulated by intraperitoneal injections of 5 IU of pregnant mare’s serum gonadotropin (Intervet, Spain) and 5 IU of human chorionic gonadotropin (Farma-Lepori, Spain), 48 h apart, and mated with adult males (2:1). Embryos at the one-cell stage were obtained 24 h after the second injection by tearing the oviducts in Hepes-buffered Chatot Ziomek Bavister medium with 150 U/ml hyaluronidase (HCZB) to dissociate the cumulus cells. Denuded embryos were then washed in HCZB and cultured for 96 h in drops of culture medium, potassium simplex optimized medium (KSOM) under oil at 37°C and 5% CO2, with or without the compounds of study. TCBZ and TCBZSO dissolved in DMSO were diluted in KSOM medium and the final DMSO concentration in the culture medium was […]. Control embryos were cultured in the presence of […]. Embryos were observed under the stereomicroscope every 24 h to assess if they were progressing normally until the blastocyst stage or, otherwise, they were arrested in a previous developmental stage. In each observation the number of embryos at the correct developmental stage (two-cells at 24 h, four-cells at 48 h, morula at 72 h and blastocyst at 96 h) were counted.
TCBZ and TCBZSO concentration ranges for the preWEC study were selected based on the results of the ZFET. The tested concentrations for this technique were 1 μM, 3 μM and 10 μM for TCBZ studies and 3 μM, 10 μM, 30 μM and 100 μM for TCBZSO studies.

[3] = humans, cited from earlier work

C[S+]([O-])c1nc2cc(Oc3cccc(Cl)c3Cl)c(Cl)cc2[nH]1 (stereo not drawn) [TCBZSO, Triclabendazole sulfoxide]
Lethality ([1]; 0.5 μM, 2-50 hpf): 17%
Dysmorphogenic embryos ([1]; 0.5 μM): 0%
Morphological score ([1]; 0.5 μM): 36.0 ± 0.0
Lethality ([1]; 1 μM, 2-50 hpf): 10%
Dysmorphogenic embryos ([1]; 1 μM): 0%
Morphological score ([1]; 1 μM): 36.0 ± 0.0
Lethality ([1]; 2.5 μM, 2-50 hpf): 20%
Dysmorphogenic embryos ([1]; 2.5 μM): 0%
Morphological score ([1]; 2.5 μM): 36.0 ± 0.0
Lethality ([1]; 5 μM, 2-50 hpf): 7%
Dysmorphogenic embryos ([1]; 5 μM): 0%
Morphological score ([1]; 5 μM): 36.0 ± 0.0
Lethality ([1]; 10 μM, 2-50 hpf): 35 ^* %
Dysmorphogenic embryos ([1]; 10 μM): 0%
Morphological score ([1]; 10 μM): 36.0 ± 0.0
Lethality ([1]; 50 μM, 2-50 hpf): 100 ^* %
ZFET LOAEC dysmorphogenesis ([1]; 2-50 hpf): No dysmorphogenesis were observed; also recorded: not dysmorphogenic
ZFET LOAEC lethality ([1]; 2-50 hpf): 10 µM
ZFET NOAEC ([1]; 2-50 hpf): 5 µM
Embryolethal concentration, times lower than ABZSO concentrations killing the embryos ([1]; ZFET): five
Embryolethal concentration, times lower than ABZSO concentrations producing malformations ([1]; ZFET): 2.5 times
Adverse effects in preimplantation embryos ([2]; 3 μM): did not induce adverse effects
Lethality 2-cells 24 h ([2]; 3 μM): 4.2%
Lethality 4-cells 48 h ([2]; 3 μM): 14.6%
Lethality Blastocyst 96 h ([2]; 3 μM): 31.3%
Lethality Morula 72 h ([2]; 3 μM): 16.7%
Lethality 2-cells 24 h ([2]; 10 μM): 24.5 ^* %
Lethality 4-cells 48 h ([2]; 10 μM): 30.6 ^* %
Lethality Blastocyst 96 h ([2]; 10 μM): 55.1 ^* %
Lethality Morula 72 h ([2]; 10 μM): 36.7 ^* %
Lethality 2-cells 24 h ([2]; 30 μM): 24.5 ^* %
Lethality 4-cells 48 h ([2]; 30 μM): 79.6 ^* %
Lethality Blastocyst 96 h ([2]; 30 μM): 98 ^* %
Lethality Morula 72 h ([2]; 30 μM): 95.9 ^* %
Lethality 2-cells 24 h ([2]; 100 μM): 100 ^* %
Lethality 4-cells 48 h ([2]; 100 μM): 100 ^* %
Lethality Blastocyst 96 h ([2]; 100 μM): 100 ^* %
Lethality Morula 72 h ([2]; 100 μM): 100 ^* %
preWEC LOAEC (lethality) [2]: 10 µM
Cmax ([3]; 10 mg/kg TCBZ, depending on concomitant food intake, reviewed by 22, 10 mg/kg, read-out: TCBZSO Cmax in plasma): 38.6 µM
Cmax ([3]; 10 mg/kg TCBZ, calculated from ref 43, read-out: TCBZSO Cmax in plasma): 26.6 µM

CSc1nc2cc(Cl)c(Oc3cccc(Cl)c3Cl)cc2[nH]1 [TCBZ, 5-chloro-6-(2,3-dichlorophenoxy)-2-(methylthio)benzimidazole]
Frequency of dysmorphogenesis: Developmental delay ([1]; 0.1 µM): 6.7%
Frequency of dysmorphogenesis: Flexion ([1]; 0.1 µM): 3.3%
Frequency of dysmorphogenesis: Head-body pigmentation ([1]; 0.1 µM): 6.7%
Lethality ([1]; 0.1 μM, 2-50 hpf): 0%
Dysmorphogenic embryos ([1]; 0.1 μM): 6.7%
Morphological score ([1]; 0.1 μM): 34.8 ± 1.8
Frequency of dysmorphogenesis: Cardiac oedema ([1]; 0.5 µM): 13.3%
Lethality ([1]; 0.5 μM, 2-50 hpf): 0%
Dysmorphogenic embryos ([1]; 0.5 μM): 13.3%
Morphological score ([1]; 0.5 μM): 34.8 ± 0.0
Adverse effects in zebrafish embryos ([1]; 1 μM): did not present any adverse effects
Frequency of dysmorphogenesis: Brain necrosis ([1]; 1 μM): 10%
Frequency of dysmorphogenesis: Cardiac oedema ([1]; 1 μM): 10%
Frequency of dysmorphogenesis: Flexion ([1]; 1 μM): 6.7%
Lethality ([1]; 1 μM, 2-50 hpf): 0%
Dysmorphogenic embryos ([1]; 1 μM): 13.3%
Morphological score ([1]; 1 μM): 35.8 ± 0.4
Frequency of dysmorphogenesis: Developmental delay ([1]; 2.5 µM): 50%
Frequency of dysmorphogenesis: Flexion ([1]; 2.5 µM): 20%
Frequency of dysmorphogenesis: Head-body pigmentation ([1]; 2.5 µM): 50%
Lethality ([1]; 2.5 μM, 2-50 hpf): 0%
Dysmorphogenic embryos ([1]; 2.5 μM): 60 ^* %
Morphological score ([1]; 2.5 μM): 33.0 ± 3.4
Lethality ([1]; 5 μM, 2-50 hpf): 100 ^* %
ZFET LOAEC dysmorphogenesis ([1]; 2-50 hpf): 2.5 µM
ZFET LOAEC embryonic differentiation (total morphological score) ([1]; 2-50 hpf): 2.5 μM
ZFET LOAEC lethality ([1]; 2-50 hpf): 5 µM
Lethality 2-cells 24 h ([2]; 1 μM): 4.2%
Lethality 4-cells 48 h ([2]; 1 μM): 8.3%
Lethality Blastocyst 96 h ([2]; 1 μM): 18.8%
Lethality Morula 72 h ([2]; 1 μM): 8.3%
Adverse effects in preimplantation embryos ([2]; 3 μM): did not produce any significant effect
Lethality 2-cells 24 h ([2]; 3 μM): 6.3%
Lethality 4-cells 48 h ([2]; 3 μM): 6.3%
Lethality Blastocyst 96 h ([2]; 3 μM): 20.8%
Lethality Morula 72 h ([2]; 3 μM): 10.4%
Lethality 2-cells 24 h ([2]; 10 μM): 18.4 ^* %
Lethality 4-cells 48 h ([2]; 10 μM): 24.5 ^* %
Lethality Blastocyst 96 h ([2]; 10 μM): 36.7%
Lethality Morula 72 h ([2]; 10 μM): 24.5 ^* %
preWEC LOAEC (lethality) [2]: 10 µM
Lethal concentration in preimplantation embryos, times higher than in vivo relevant concentrations ([2]; preWEC): 10 times
Cmax ([3]; therapeutical dose of 10 mg/kg TCBZ, reviewed by 22, read-out: TCBZ Cmax in plasma): 1.16 µM
